Patent US4450269A, “Mono-5-substituted-3-chloro-4H-1,2,6-thiadiazin-4-one antifungal agents” (FMC Corporation, priority 1980, dated 1984)

Tested on: Sclerotinia fructicola
Experiment: Mycelial growth test
Assay type: cell-based
Conditions: SF; for inhibition at 5 ppm / inhibition at 10 ppm / inhibition at 20 ppm / inhibition at 40 ppm: Sclerotinia, 72 h, read-out: Percent Fungus Growth Inhibition; for Percent Fungus Growth Inhibition: 72 hours
Text: | SF = Sclerotinia fructicola

Compound	inhibition at 5 ppm (5 ppm) [%]	inhibition at 10 ppm (10 ppm) [%]	inhibition at 20 ppm (20 ppm) [%]	inhibition at 40 ppm (40 ppm) [%]	Percent Fungus Growth Inhibition (5 ppm) [%]	Percent Fungus Growth Inhibition (10 ppm) [%]	Percent Fungus Growth Inhibition (20 ppm) [%]	Percent Fungus Growth Inhibition (40 ppm) [%]
Cc1cc(Oc2nsnc(Cl)c2=O)cc(C)c1Br [Compound 60, 3-[(4-bromo-3,5-dimethyl)-phenoxy]-5-chloro-4H--1,2,6-thiadiazin-4-one]	56	71	65	71				
3-chloro-5-(bromophenoxy)-4H-1,2,6-thiadiazin-4-one [Compound 33]					44	61	94	100
O=C(Nc1ccccc1)Oc1ccc(Oc2nsnc(Cl)c2=O)cc1 [Compound 37, 3-chloro-5-[4-(phenylaminocarbonyloxy)phenoxy]-4H-1,2,6,-thiadiazin-4-one]	30	59	56	59				
O=C(O)c1ccc(Oc2nsnc(Cl)c2=O)cc1 [Compound 50, 3-(4-carboxyphenoxy)-5-chloro-4H--1,2,6-thiadiazin-4-one]	59	47	94	100				
O=c1c(Cl)nsnc1Oc1ccc(F)cc1 [Compound 11, 3-chloro-5-(4-fluorophenoxy)-4H--1,2,6-thiadiazin-4-one]	100	100	100	100				
CC(=O)c1ccc(Oc2nsnc(Cl)c2=O)cc1 [Compound 47, 3-(4-acetylphenoxy)-5-chloro-4H--1,2,6-thiadiazin-4-one]	82	82	100	100				
CC(=O)c1cccc(Oc2nsnc(Cl)c2=O)c1 [Compound 48, 3-(3-acetylphenoxy)-5-chloro-4H--1,2,6-thiadiazin-4-one]	82	88	94	100				
O=c1c(Cl)nsnc1Oc1ccc([N+](=O)[O-])cc1 [Compound 9, 3-chloro-5-(4-nitrophenoxy)-4H--1,2,6-thiadiazin-4-one]	58	76	100	100				
3-chloro-5-[methylaminocarbonyloxy)phenoxyl]-4H-1,2,6-thiadiazin-4-one [Compound 36]					38	62	58	100
O=c1c(Cl)nsnc1Oc1cccc(Cl)c1 [Compound 13, 3-chloro-5-(3-chlorophenoxy)-4H--1,2,6-thiadiazin-4-one]	51	67	100	100				
Cc1cc(Oc2nsnc(Cl)c2=O)cc(C)c1Cl [Compound 59, 3-chloro-5-[(4-chloro-3,5-dimethyl)phenoxy]-4H--1,2,6-thiadiazin-4-one]	71	68	59	74				
Cc1cc(Oc2nsnc(Cl)c2=O)ccc1Cl [Compound 54, 3-chloro-5-(4-chloro-3-methylphenoxy)-4H--1,2,6-thiadiazin-4-one]	49	50	53	64				
Cc1cc(Cl)ccc1Oc1nsnc(Cl)c1=O [Compound 55, 3-chloro-5-(4-chloro-2-methylphenoxy)-4H--1,2,6-thiadiazin-4-one]	42	50	56	61				
N#Cc1ccc(Oc2nsnc(Cl)c2=O)cc1 [Compound 10, 3-chloro-5-(4-cyanophenoxy)-4H--1,2,6-thiadiazin-4-one]		33	100	100				
O=c1c(Cl)nsnc1Oc1ccc(Cl)cc1Cl [Compound 17, 3-chloro-5-(2,4-dichlorophenoxy)-4H--1,2,6-thiadiazin-4-one]	62	76	96	100				
Cc1cc(Cl)c(Oc2nsnc(Cl)c2=O)cc1C [Compound 58, 3-chloro-5-[(2-chloro-4,5-dimethyl)phenoxy]-4H--1,2,6-thiadiazin-4-one]	56	65	68	71				
O=c1c(Cl)nsnc1Oc1cccc2ccccc12 [Compound 32, 3-chloro-5(1-naphthoxy)-4H-1,2,6-thiadiazin-4-one]	74	79	76	100				
CC(C)(C)c1ccc(Oc2nsnc(Cl)c2=O)cc1 [Compound 4, 3-chloro-5-(4-tert-butylphnoxy)-4H--1,2,6-thiadiazin-4-one]	0	0	4	0				
Cc1ccc(Cl)c(Oc2nsnc(Cl)c2=O)c1 [Compound 56, 3-chloro-5-[(2-chloro-5-methyl)phenoxy]-4H--1,2,6-thiadiazin-4-one]	69	78	100	100				
O=c1c(Cl)nsnc1Oc1ccc(Cl)c(Cl)c1 [Compound 16, 3-chloro-5-(3,4-dichlorophenoxy)-4H--1,2,6-thiadiazin-4-one]	64	67	67	67				

Compound	inhibition at 5 ppm (5 ppm) [%]	inhibition at 10 ppm (10 ppm) [%]	inhibition at 20 ppm (20 ppm) [%]	inhibition at 40 ppm (40 ppm) [%]	Percent Fungus Growth Inhibition (5 ppm) [%]	Percent Fungus Growth Inhibition (10 ppm) [%]	Percent Fungus Growth Inhibition (20 ppm) [%]	Percent Fungus Growth Inhibition (40 ppm) [%]
Nc1ccc(Oc2nsnc(Cl)c2=O)cc1 [Compound 26, 5-(4-aminophenoxy)-3-chloro-4H--1,2,6-thiadiazin-4-one]				100	17	66		
Cc1ccc(Oc2nsnc(Cl)c2=O)cc1 [Compound 3, 3-chloro-5-(4-methylphenoxy)-4H--1,2,6-thiadiazin-4-one]	27	67	94	100				
CC(=O)Nc1ccc(Oc2nsnc(Cl)c2=O)cc1 [Compound 8, 5-(4-acetylaminophenoxy)-3-chloro-4H--1,2,6-thiadiazin-4-one]	0	0	51	60				
Cc1ccc(Oc2nsnc(Cl)c2=O)c(Br)c1 [Compound 57, 3-[(2-bromo-4-methyl)-phenoxy]-5-chloro-4H--1,2,6-thiadiazin-4-one]	68	82	100	100				
O=c1c(Cl)nsnc1Oc1c(Cl)cccc1Cl [Compound 18, 3-chloro-5-(2,6-dichlorophenoxy)-4H--1,2,6-thiadiazin-4-one]	51	64	89	100				
O=c1c(Cl)nsnc1Oc1c(Cl)c(Cl)c(Cl)c(Cl)c1Cl [Compound 31, 3-chloro-5-(pentachlorophenoxy)-4H--1,2,6-thiadiazine-4-one]	55	52	72	52				
O=c1c(Cl)nsnc1Oc1ccc(Cl)cc1 [Compound 12, 3-chloro-5-(4-chlorophenoxy)-4H--1,2,6-thiadiazin-4-one]	64	82	100	100				
O=c1c(Cl)nsnc1Oc1cccc(Cl)c1Cl [Compound 19, 3-chloro-5-(2,3-dichlorophenoxy)-4H--1,2,6-thiadiazin-4-one]	64	76	100	100				
CSc1ccc(Oc2nsnc(Cl)c2=O)cc1 [Compound 39, 3-chloro-5-[(4-methylthio)phenoxy]-4H-1,2,6,-thiadiazin-4-one]	41	48	63	85				
O=c1c(Cl)nsnc1Oc1c(Cl)cc(Cl)cc1Cl [Compound 30, 3-chloro-5-(2,4,6-trichlorophenoxy)-4H--1,2,6-thiadiazin-4-one]	50	87	97	97				
CC(=O)Nc1ccccc1Oc1nsnc(Cl)c1=O [Compound 43, 3-[(2-acetylamino)-phenoxy]-5-chloro-4H--1,2,6-thiadiazin-4-one]	0	0	17	22				
CNC(=O)Nc1ccc(Oc2nsnc(Cl)c2=O)cc1 [Compound 28, 3-chloro-5-[4-(3-methylureido)-phenoxy]-4H--1,2,6-thiadiazin-4-one]	17	28	0	62				
CC(=O)c1ccccc1Oc1nsnc(Cl)c1=O [Compound 49, 3-(2-acetylphenoxy)-5-chloro-4H--1,2,6-thiadiazin-4-one]	14	33	75	100				
COc1ccc(Cl)c(Oc2nsnc(Cl)c2=O)c1 [Compound 51, 3-chloro-5-[(2-chloro-5-methoxy)phenoxy]-4H--1,2,6-thiadiazin-4-one]	69	92	92	100				
O=C(O)Cc1ccccc1Oc1nsnc(Cl)c1=O [Compound 45, 3-(2-carboxymethylphenoxy)-5-chloro-4H--1,2,6-thiadiazin-4-one]	9	3	38	59				
Cc1ccccc1Oc1nsnc(Cl)c1=O [Compound 22, 3-chloro-5-(2-methylphenoxy)-4H--1,2,6-thiadiazin-4-one]	24	100	100	100				
O=C(Nc1ccccc1)Nc1ccc(Oc2nsnc(Cl)c2=O)cc1 [Compound 29, 3-chloro-5-[4-(3-phenylureido)-phenoxy]-4H--1,2,6-thiadiazin-4-one]	28	31	0	7				
CCCCOc1ccc(Oc2nsnc(Cl)c2=O)cc1 [Compound 6, 3-chloro-5-(4-n-butoxyphenoxy)-4H--1,2,6-thiadiazin-4-one]	0	67	0	67				
Cc1ccc(Oc2nsnc(Cl)c2=O)c(C)c1 [Compound 23, 3-chloro-5-(2,4-dimethylphenoxy)-4H--1,2,6-thiadiazin-4-one]	82	100	100	100				
